In BindingDB's records for doi:10.1016/s0028-3908(00)00035-6 (University of Cambridge, 2000):
Several values for one entry are separate records, joined by “and”; a condition that tells them apart may be missing. Equal entries are not always repeated.

Assays:
[1] = molecular target: Somatostatin receptor type 5 (Homo sapiens, UniProt P35346)
[2] = molecular target: Somatostatin receptor type 3 (Homo sapiens, UniProt P32745)
[3] = molecular target: Somatostatin receptor type 2 (Homo sapiens, UniProt P30874)
[4] = molecular target: Somatostatin receptor type 4 (Homo sapiens, UniProt P31391)
[5] = molecular target: Somatostatin receptor type 2 (Rattus norvegicus, UniProt P30680)
Somatostatin receptor type 2 (Rattus norvegicus, UniProt P30680), sequence (P30680 whole entry): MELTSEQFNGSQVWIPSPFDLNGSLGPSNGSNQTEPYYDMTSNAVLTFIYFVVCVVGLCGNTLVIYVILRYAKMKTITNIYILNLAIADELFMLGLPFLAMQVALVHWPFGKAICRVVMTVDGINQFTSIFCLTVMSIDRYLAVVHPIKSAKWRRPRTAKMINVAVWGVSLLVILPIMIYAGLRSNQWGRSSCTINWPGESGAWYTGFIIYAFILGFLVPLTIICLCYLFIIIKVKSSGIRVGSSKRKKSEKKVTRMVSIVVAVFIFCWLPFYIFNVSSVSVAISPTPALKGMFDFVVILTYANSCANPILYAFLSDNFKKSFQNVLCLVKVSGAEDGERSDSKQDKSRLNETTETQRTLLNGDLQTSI

Somatostatin receptor type 4, sequence (P31391 whole entry): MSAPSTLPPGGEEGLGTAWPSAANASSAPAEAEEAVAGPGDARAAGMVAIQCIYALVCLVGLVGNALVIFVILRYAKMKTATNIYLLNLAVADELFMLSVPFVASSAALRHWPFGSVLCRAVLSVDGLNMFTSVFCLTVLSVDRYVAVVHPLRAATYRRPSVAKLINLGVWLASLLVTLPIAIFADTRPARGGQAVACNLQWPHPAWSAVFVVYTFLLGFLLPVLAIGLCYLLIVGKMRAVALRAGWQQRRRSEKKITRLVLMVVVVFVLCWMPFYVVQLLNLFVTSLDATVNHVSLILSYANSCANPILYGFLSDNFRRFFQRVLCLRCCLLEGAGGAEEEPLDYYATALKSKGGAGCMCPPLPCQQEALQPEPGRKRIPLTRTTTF
Somatostatin receptor type 3, sequence (P32745 whole entry): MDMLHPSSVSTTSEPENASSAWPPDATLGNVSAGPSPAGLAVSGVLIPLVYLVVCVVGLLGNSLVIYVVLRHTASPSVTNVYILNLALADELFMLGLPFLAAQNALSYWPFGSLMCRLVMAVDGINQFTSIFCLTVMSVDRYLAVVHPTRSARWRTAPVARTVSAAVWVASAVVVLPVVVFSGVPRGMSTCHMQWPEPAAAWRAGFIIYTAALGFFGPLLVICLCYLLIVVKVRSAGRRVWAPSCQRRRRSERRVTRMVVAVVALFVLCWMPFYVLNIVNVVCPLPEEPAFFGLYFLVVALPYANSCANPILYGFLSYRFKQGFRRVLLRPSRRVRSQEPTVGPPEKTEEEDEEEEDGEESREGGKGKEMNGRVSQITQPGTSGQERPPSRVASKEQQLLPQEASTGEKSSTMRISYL
Somatostatin receptor type 5, sequence (P35346 whole entry): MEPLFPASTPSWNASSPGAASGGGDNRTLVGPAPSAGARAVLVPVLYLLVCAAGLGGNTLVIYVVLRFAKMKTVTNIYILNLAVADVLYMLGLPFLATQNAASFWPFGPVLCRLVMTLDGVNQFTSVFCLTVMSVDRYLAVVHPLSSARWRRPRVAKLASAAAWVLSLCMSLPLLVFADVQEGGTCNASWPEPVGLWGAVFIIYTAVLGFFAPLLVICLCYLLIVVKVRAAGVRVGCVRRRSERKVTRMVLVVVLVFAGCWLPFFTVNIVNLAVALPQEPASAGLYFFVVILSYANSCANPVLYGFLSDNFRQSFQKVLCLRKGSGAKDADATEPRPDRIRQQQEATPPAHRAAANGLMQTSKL
Somatostatin receptor type 2 (Homo sapiens, UniProt P30874), sequence (P30874 whole entry): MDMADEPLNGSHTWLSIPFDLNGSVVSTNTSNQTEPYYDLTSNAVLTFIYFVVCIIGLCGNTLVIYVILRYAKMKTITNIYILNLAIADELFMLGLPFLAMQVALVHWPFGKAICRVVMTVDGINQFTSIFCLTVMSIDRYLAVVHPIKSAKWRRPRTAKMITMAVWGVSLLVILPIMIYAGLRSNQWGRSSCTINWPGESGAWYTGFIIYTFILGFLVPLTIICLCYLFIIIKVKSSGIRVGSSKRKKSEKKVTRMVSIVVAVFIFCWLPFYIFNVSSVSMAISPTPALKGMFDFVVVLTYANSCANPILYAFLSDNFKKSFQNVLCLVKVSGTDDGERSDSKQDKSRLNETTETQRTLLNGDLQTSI

In the case of `CC(=O)N[C@@H](Cc1ccc([N+](=O)[O-])cc1)C(=O)N[C@@H]1CSSC[C@@H](C(=O)N[C@H](Cc2ccc(O)cc2)C(N)=O)NC(=O)[C@H]([C@@H](C)O)NC(=O)[C@H](CCCCN)NC(=O)[C@@H](Cc2c[nH]c3ccccc23)NC(=O)[C@H](Cc2ccc(O)cc2)NC1=O` [CAS_183658-72-2], the Ki [1] is reported as 331 nM, the Ki [2] is reported as 851 nM and the Ki [3] is reported as 2.63 nM. The Ki [4] was 1740 nM and the Ki [5] was 7.94 nM and 4.47 nM.
